These results are taken from ChEMBL document CHEMBL4177731, “Synthesis, in vitro α-glucosidase inhibitory activity and docking studies of novel chromone-isatin derivatives” (Bioorg Med Chem Lett, 2018).

The IC50 is the point on the concentration scale where inhibition reaches its midpoint. Read a high IC50 as a need for much substance.

The nature of the assay: Inhibition of Saccharomyces cerevisiae alpha-glucosidase pre-incubated for 15 mins before p-nitrophenyl alpha-D-glucopyranoside substrate addition and measured after 30 mins by spectrophotometry.

As for `O=C1/C(=N\N=C\c2coc3cc(O)ccc3c2=O)c2ccccc2N1Cc1ccccc1Cl`, half-maximal inhibition (IC50) was put at 5.51 µM.

In turn, `O=C1/C(=N\N=C\c2coc3cc(O)ccc3c2=O)c2ccccc2N1Cc1ccc(F)cc1` displayed an IC50 of 3.82 µM.

`O=C1/C(=N\N=C\c2coc3cc(O)ccc3c2=O)c2ccccc2N1Cc1ccc(Br)cc1` came in with an IC50 of 3.18 µM.

As to `O=C1/C(=N\N=C\c2coc3ccccc3c2=O)c2ccccc2N1Cc1ccc(Br)cc1`, the IC50 amounted to 8.17 µM.

In turn, `O=C1/C(=N\N=C\c2coc3ccccc3c2=O)c2ccccc2N1Cc1ccccc1Cl` yielded an IC50 of 13.5 µM.

`O=C1/C(=N\N=C\c2coc3ccccc3c2=O)c2ccccc2N1Cc1cccc(F)c1` registered an IC50 of 16 µM.

With `O=C1/C(=N\N=C\c2coc3ccccc3c2=O)c2ccccc2N1Cc1ccc(Cl)cc1`, the IC50 came to 16.6 µM.

`O=C1/C(=N\N=C\c2coc3ccccc3c2=O)c2ccccc2N1Cc1ccc(F)cc1` displayed a half-inhibitory concentration (IC50) of 9.8 µM.

In the case of `O=C1/C(=N\N=C\c2coc3cc(O)ccc3c2=O)c2ccccc2N1Cc1ccc(Cl)cc1Cl`, half-maximal inhibition (IC50) was put at 4.25 µM.

In turn, `CN1C(=O)/C(=N\N=C\c2coc3ccccc3c2=O)c2ccccc21` showed an IC50 of 11.8 µM.

`O=C1/C(=N\N=C\c2coc3cc(O)ccc3c2=O)c2ccccc2N1Cc1ccc(Cl)cc1`: 3.9 µM corresponded to half-maximal inhibition (IC50).

`O=C1/C(=N\N=C\c2coc3ccccc3c2=O)c2ccccc2N1Cc1ccccc1F`: the half-maximal inhibitory concentration (IC50) came to 14 µM.

In turn, `O=C1Nc2ccccc2/C1=N/N=C/c1coc2ccccc2c1=O` gave an IC50 of 16.2 µM.

Turning to `O=C1/C(=N\N=C\c2coc3cc(O)ccc3c2=O)c2ccccc2N1Cc1ccccc1Br`, the IC50 is 4.73 µM.

As to `O=C1/C(=N\N=C\c2coc3cc(O)ccc3c2=O)c2ccccc2N1Cc1cccc(F)c1`, the IC50 stood at 4.17 µM.

In turn, `O=C1/C(=N\N=C\c2coc3cc(O)ccc3c2=O)c2ccccc2N1Cc1ccccc1F` registered an IC50 of 4.57 µM.
